Measurements published in patent US20180206501A1, “CONTROLLING DISEASES AND INSECTS IN PLANTS” (priority 2017, published 2018).

Columns and labels:
[1] = system: Escherichia coli (E. coli); assay: Microbial testing, standard pour plate count; assay type: cell-based
Experimental: The purpose of this study was to evaluate the effectiveness of test materials labeled #6, #7 and #8, in killing or reducing Escherichia coli (E. coli). The standard pour plate count test method was used to evaluate Percent Reduction of Colony Forming Units (CFU).
The E. coli (lot number 168756) was purchased from Quanti-Cult™ and is derived from original ATCC® stock cultures. They are received dehydrated. A viable streak plate was colonized from this culture. One colony was transferred to 5 ml of sterile Tryptic Soy Broth (lot # A3303) and incubated overnight. Antimicrobial activity was determined by comparing results from the test sample to simultaneously run controls or from the T0. The concentration of the suspension was determined using serial dilution and plate counts to determine the amount of Colony Forming Units (CFU's)/ml of suspension.
The materials tested in this study are described in the Purpose section. Sterile 0.3 mM KH2PO4 buffer was inoculated to a concentration of ˜1.0-3.0×10^5 CFU/ml. A To plate originated from the inoculated buffer for quantification and prepared 1:100 dilution to insure that viable inoculum was applied in the test system. The test materials were formulated in 20×150 […] test tubes. Aliquots of 0.3 grams of each of the materials (#6, #7 and #8) were added to sterile test tubes. […]

[2] = Appearance of the solution in water pH = 10 at 24 hours; assay type: physicochemical; settings: 50% stock plus water pH = 10
Cercospora = assay: Laboratory over-spray of sugar beet leaf cultures on agar incubation plates; assay type: cell-based; settings: L-1 and Control leaf cultures; 0.5% solution with 5211 surfactant in water; 24 hours incubation
Experimental: The initial leaf cuttings from L-1 to L-3 were used for additional evaluations. […] All of the leaves were very green, showing no signs of Cercospora. When the leaves were cultured and incubated (three plates per sample), the plate counts on all of the samples were too numerous to count (TNTC) indicating signs of Cercospora infection.
The control sample was taken from a known infected control sample. In addition to the normal culturing process, leaf samples from L-1 and the Control were treated in the laboratory. This involved placing the leaf culture onto the agar incubation plate, over spraying the plate with a 0.5% solution Ztrex 72 and 5211 surfactant in water. The plates were further incubated for 24 hours.
Our Control sample was obtained from Michigan Sugar Company, Bay City, Mich. and was used for all of the initial lab studies.

Compound | Application, microbial kill [1] | Plate count ([1]; 0.3 grams in 5 ml Tryptic Soy Broth, 1×10^5 CFU E. coli, 48 hours, T0 9.6×10^4 CFU/ml) [CFU/ml] | Solution @ 24 hours [2] | Evidence of Cercospora on the incubation plate (Cercospora)
CO[Si](CCc1ccc(S(=O)(=O)Cl)cc1)(OC)OC [#8, 2-(4-chlorosulfonylphenyl)ethyltrimethoxysilane] | 99.99 | 16 | Clear | 
CCCCCCCCCCCCCCCCCC[N+](C)(C)CCC[Si](OC)(OC)OC.[Cl-] [Ztrex 72, (CH3O) Si (CH2)N^+ (CH3)2 (C18H37) Cl^−] |  |  |  | no evidence of Cercospora
